Assay results published in patent US9885727B2, “Cell culture models for validating candidate compounds for use in treating COPD and other diseases” (THE TRUSTEES OF COLUMBIA UNIVERSITY IN THE CITY OF NEW YORK, priority 2010, dated 2018).

Legend:
[1] = Stability of DES and IDS on acid hydrolysis (6N HCl, 110° C., 24 hrs), LC/MSMS; details: for Recovered, mean: 6N HCl at 110° C. for 24 hour; for stability through acid hydrolysis: 10, 5 and 1 ng/ml, HCl hydrolysis at 110° C. for 24 hrs
Method: The assay of total DES and IDS in biological fluids requires HCl hydrolysis at 110° C. to release DES and IDS from their crosslinked or peptide conjugates. We examined the stability of DES and IDS in three different concentrations (10, 5, and 1 ng/ml) during HCl hydrolysis at 110° C. for 24 hrs. The DES/IDS solutions resulting from the HCl treatment were subjected to LC/MSMS measurements of DES and IDS, which were compared with the measurements of the same concentrations of untreated DES and IDS to calculate the recovery by the acid treatment.

[2] = system: COPD patients; assay: Tiotropium treatment of COPD patients: D/I in plasma, urine and sputum by LC/MS; type: in vivo, human
Method: COPD patients have elevated levels of D/I in plasma, urine and sputum, which might respond to prolonged bronchodilation. To determine if clinical effects of Tiotropium (TIO) affect tissue degradation of the lung in COPD, clinically stable patients with COPD (n=9) not on TIO prior to the study and at one month and a second month after initiating therapy were tested. Other anticholinergic bronchodilators were stopped prior to TIO, and other therapies/disease treatments were unchanged for the two months of study. To these patients, 18 mcg TIO was administered each 24 hours. D/I in plasma, urine and sputum were measured by liquid chromatography and mass spectrometry (LC/MS) prior to the study and at one month and two months after the study.

[3] = system: COPD patients; assay: Spirometry in post-TIO therapy patients; type: in vivo, human; details: most post-TIO therapy patients
Excerpt: The improvement in spirometric indices were usually concordant with levels of D/I in patients.

[4] = system: pro-MMP1 and pro-MMP3; details: cited from earlier work
[5] = system: neutrophils and macrophages; details: cited from earlier work
[6] = system: elastase-induced airspace enlargement; details: aerosol of 0.1% HA in water for 50 min prior to elastase; cited from earlier work
[7] = system: elastases, including human metalloproteinase 12; details: cited from earlier work
[8] = system: smoke-induced elastic fiber injury; assay: Mouse model of smoke-induced pulmonary emphysema: DID in BALF and whole lungs; type: in vivo, DBA/2J mice
Method: (§1) Eight-week-old female DBA/2J mice (The Jackson Laboratory, Bar Harbor, Me.) were divided into two treatment groups as follows: Group 1 was treated with aerosolized HA, beginning 1 month following initiation of smoke exposure; Group 2 was treated with aerosolized water, beginning 1 month following initiation of smoke exposure. Groups 1 and 2 were exposed to smoke for 3 h per day, 5 days/week, for a period of 10 months. Group 1 was treated with a 0.1% solution of HA in water for 1 h prior to each smoking session. Group 2 received aerosolized water for a similar interval. At various intervals following initial smoke exposure, animals were euthanized to determine (1) DID content in bronchoalveolar lavage fluid (BALF) and whole lungs at 2, 4, 6, 8, and 10 months; (2) lung histopathology at 3, 6, and 10 months; and (3) airspace enlargement as measured by the mean linear intercept (MLI) at 3 months.
Following administration of either aerosolized HA or water, the nebulizer was disconnected and the smoking machine (Model TE-10, Teague Enterprises, Davis, Calif.) was attached to the exposure chamber. Both treatment groups were exposed to cigarette smoke for a period of 3 h/day, 5 days/week. The smoking machine simultaneously burned two filtered research-grade cigarettes (type 2R4F, University of Kentucky). Each cigarette was puffed once per minute for 2 s at a flow rate of 1.05 LPM, yielding 35 cc of smoke. This cycle was repeated nine times before ejecting the cigarette and loading a new one. Proper flow rate was maintained by a vacuum pump that established negative pressure at the exhaust port.
Beginning 1 month following initial smoke exposure, Group 1 was administered a 0.1% solution of low-molecular-weight (150 kDa) streptococcal HA in water (Bayer, Shawnee, Kans.), using a Misty-Ox nebulizer (Vital Signs, Totowa, N.J.). Group 2 received aerosolized water alone. The nebulizer was connected to a heavy-duty air compressor that delivered a constant pressure of 30 psi. The aerosol entered the exposure chamber through an inflow port attached to the roof and was drawn through the chamber by negative pressure created by a vacuum pump connected to an exhaust port on the side wall. The chamber was large enough (28×19×15 in.) to permit the mice to remain in their cages while inhaling the aerosol, thereby minimizing direct handling of the animals.
The levels of the elastin-specific crosslinking amino acids, DID, were measured in both BALF and whole-lung tissues. Animals were asphyxiated with CO2 and their lungs were lavaged three times with 1-ml aliquots of Hanks' solution. Both cell-free lavage fluids and homogenized lung tissues were then hydrolyzed in 6 N HCl at 110° C. for 24 h, and the hydrolysates were filtered and evaporated to remove acid. DID were quantified by high-performance liquid chromatography and electrospray ionization mass spectrometry according to previously published procedures^11.

[9] = system: smoke-induced airspace enlargement; type: in vivo, DBA/2J mice
Method: as §1, with “3 months. […]” for “3 months.”
At 3, 6, and 10 months following initiation of smoke exposure, mice were asphyxiated with CO2 and their lungs were inflated in situ with 10% neutral-buffered formalin at a constant pressure of 20 cm H2O. […] Slide sections stained with hematoxylin and eosin were examined with the light microscope to determine histological changes and to quantify airspace diameter by the mean linear intercept method^16. […]

[10] = system: smoke-induced elastic fiber injury; details: concurrent administration, within 3 months of smoke exposure; cited from earlier work
[11] = COPD patients, 18 mcg TIO each 24 hours, up to two months

## NC(CCCC[n+]1cc(CCC(N)C(=O)O)c(CCCC(N)C(=O)O)c(CCC(N)C(=O)O)c1)C(=O)O (stereo not drawn) [DES, Desmosine]
[1]; 1 ng/ml DES/IDS
  Recovered, mean: 0.50 ng/mL
[1]; 5 ng/ml DES/IDS
  Recovered, mean: 2.42 ng/mL
[1]; 10 ng/ml DES/IDS
  Recovered, mean: 5.04 ng/mL
[1]
  stability through acid hydrolysis: stable through acid hydrolysis

## NC(CCCC[n+]1cc(CCC(N)C(=O)O)cc(CCC(N)C(=O)O)c1CCCC(N)C(=O)O)C(=O)O (stereo not drawn) [IDS, Isodesmosine]
[1]; 1 ng/ml DES/IDS
  Recovered, mean: 0.48 ng/mL
[1]; 5 ng/ml DES/IDS
  Recovered, mean: 2.55 ng/mL
[1]; 10 ng/ml DES/IDS
  Recovered, mean: 5.37 ng/mL
[1]
  stability through acid hydrolysis: stable through acid hydrolysis

## C[N+]1(C)[C@@H]2C[C@@H](OC(=O)C(O)(c3cccs3)c3cccs3)C[C@H]1[C@@H]1O[C@@H]12 [TIO, Tiotropium]
[2]; [11]
  patients with significant decrease in D/I levels in plasma: 10 out of 12
  patients with significant decrease in D/I levels in sputum: all 12 patients
  patients with significant decrease in D/I levels in urine: 10 out of 12
[2]; two months of treatment with TIO
  D/I levels in plasma, urine and sputum: significant reductions
[3]
  FVC, FEV1 and ratio of FEV1/FVC: significant increase
  Residual Volume (RV): decreases

## VGVAPG (Human) [elastin-derived hexapeptide isolated from ligamentum nuchae or aorta by porcine pancreatic elastase]
[4]
  pro-MMP1 and pro-MMP3 upregulation: induce pro-MMP1 and pro-MMP3 upregulation
[5]
  chemoattractant activity: chemoattractants for neutrophils and macrophages

## hyaluronan [HA]
[6]
  airspace enlargement vs aerosolized water and elastase: significantly less airspace enlargement
[7]
  direct inhibition of elastases: does not directly inhibit elastases
[7]; in vitro, several types of elastase including human metalloproteinase 12
  elastolysis of elastic fibers with bound HA: prevented elastolysis
[8]; 2 and 4 months of smoke exposure
  difference in BALF DID, HA/Smoke vs Smoke-Only: not statistically significant
[8]; HA/Smoke group, 0.1% aerosolized HA begun 1 month after start of smoke
  BALF DID, level before the drop: 0.8 ng/mL
[8]; HA/Smoke group, after 4 months of smoke exposure
  BALF DID, level after the drop: less than 1 pg/ml
[8]; subsequent measurements (after 4 months)
  BALF DID, HA-treated vs Smoke-Only: significantly lower levels
[8]; whole lungs, 10-month period
  difference in lung DID, HA/Smoke vs Smoke-Only: not statistically significant
[9]; 3 months of smoke, HA treated for 2 months, smoke alone 58.4 μm, p<0.01
  mean linear intercept (MLI): 42.6 μm
[9]; mouse, in vivo
  inflammatory response beyond that induced by smoke exposure: no evidence of an inflammatory response
[10]
  BALF DID levels: significantly reduced
